Results taken from patent publication US20190364896A1, “SYNERGISTIC WEED CONTROL FROM APPLICATIONS OF PYRIDINE CARBOXYLIC ACID HERBICIDES AND ALS INHIBITORS” (Dow AgroSciences LLC, priority 2014, published 2019).
Read-outs that look alike come from different tables or passages of the source.

Experiments:
[1] = test system: pigweed (Amaranthus retroflexus, AMARE); experiment: Postemergence herbicidal activity, greenhouse trial (visual injury 0-100%); assay type: in vivo; conditions: Amaranthus retroflexus, post-emergence, read-out: % visual injury Obs
Method in brief: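 Herbicide mixtures (an EC-formulated compound plus a partner herbicide) are sprayed at 187 L/ha on greenhouse plants at the second or third true leaf stage, with rates in g ae/ha for (a) and g ai/ha for (b).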

[2] = test system: rutabaga (Brassica napus var. napobrassica, BRSNA); experiment: as above; assay type: in vivo; conditions: 5 g ae/ha
Procedure: (§1) Seeds of the desired test plant species were planted in Sun Gro MetroMix® 306 planting mixture, which typically has a pH of 6.0 to 6.8 and an organic matter content of about 30 percent, in plastic pots with a surface area of 103.2 square centimeters (cm^2). […] The plants were grown for 7-36 days (d) in a greenhouse with an approximate 14-hour (h) photoperiod which was maintained at about 23° C. during the day and 22° C. during the night. Nutrients and water were added on a regular basis and supplemental lighting was provided with overhead metal halide 1000-Watt lamps as necessary. The plants were employed for testing when they reached the second or third true leaf stage.
(§2) Weighed amounts of technical material were dissolved in a volume of 97:3 volume per volume (v/v) acetone/dimethyl sulfoxide (DMSO) to stock solutions. […] The concentrated stock solutions were diluted with an aqueous mixture of 1.5% v/v of Agri-dex crop oil concentrate to provide the appropriate application rates. Compound requirements are based upon a 12 milliliter (mL) application volume at a rate of 187 liters per hectare (L/ha). Spray solutions of the experimental compound mixtures were prepared by adding the stock solutions to the appropriate amount of dilution solution to form a 12 mL spray solution in two-way combinations. Formulated compounds were applied to the plant material with an overhead Mandel track sprayer equipped with 8002E nozzles calibrated to deliver 187 L/ha over an application area of 0.503 square meters (m^2) at a spray height of 18 inches (43 centimeters (cm)) above average plant canopy. Control plants were sprayed in the same manner with the solvent blank. Application rates for component (a) are in g ae/ha, and application rates for component (b) are in g ai/ha.
(§3) The treated plants and control plants were placed in a greenhouse as described above and watered by sub-irrigation to prevent wash-off of the test compounds. After 20-22 d, the condition of the test plants as compared with that of the control plants was determined visually and scored on a scale of 0 to 100 percent where 0 corresponds to no injury and 100 corresponds to complete kill. The condition of the test plants was compared with that of the control plants as determined visually and scored on a scale of 0 to 100 percent, where 0 corresponds to no injury and 100 corresponds to complete kill. Colby's equation was used to determine the herbicidal effects expected from the mixtures.
Compound 1 was formulated as an EC and was combined with imazamox, imazamethabenz, imazapic, imazapyr or imazethapyr. The mixtures were applied to winter wheat (TRZAW) and/or maize (ZEAMX), and the phytotoxicity of the herbicidal compositions was measured. In addition, the efficacy of the herbicidal compositions on blackgrass (Alopecurus myosuroides, ALOMY), wild oat (Avena fatua, AVEFA), winter rape (Brassica napus, BRSNW), spring rape (Brassica napus, BRSNN), turnip (Brassica rapa, BRSRR), thistle (Cirsium arvense, CIRAR), large crabgrass (Digitaria sanguinalis, DIGSA), pigweed (Amaranthus retrollexus, AMARE), common lambsquarters (Chenopodium album L., CHEAL), poinsettia (Euphorbia heterophylla, EPHHL), ivyleaf morning-glory (Ipomoea hederacea, IPOHE), kochia (Kochia scoparia, KCHSC), wild buckwheat (Polygonum convolvulus, POLCO), grain sorghum (Sorghum vulgare, SORVU), chickweed (Stellaria media, STEME), wild pansy (Viola tricolor, VIOTR), sunflower (Helianthus annuus, HELAN), giant foxtail (Setaria faberi, SETFA), soybean (Glycine max, GLXMA), rutabaga (Brassica napus var. napobrassica, BRSNA) and barnyardgrass (Echinochloa crus-galli, ECHCG) was evaluated.

[3] = test system: giant foxtail (Setaria faberi, SETFA); experiment: as above; assay type: in vivo
[4] = test system: brown mustard (Brassica juncea, BRSJU); experiment: as above; assay type: in vivo; conditions: Compound 1 5 g ae/ha
[5] = test system: spring rape (Brassica napus, BRSNN); experiment: as above; assay type: in vivo
[6] = test system: poinsettia (Euphorbia heterophylla, EPHHL); experiment: as above; assay type: in vivo; conditions: for % visual injury Obs: EPHHL
Method in brief: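 Greenhouse-grown plants at the second to third true leaf stage were sprayed with two-way mixtures in 1.5% v/v Agri-dex crop oil concentrate at 187 L/ha; rates in g ae/ha for component (a) and g ai/ha for component (b). Injury scored visually 0–100% versus solvent-blank controls after 20–22 d, with expected mixture effects from Colby's equation.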

[7] = test system: winter wheat (Triticum aestivum, TRZAW); experiment: Postemergence crop injury (phytotoxicity), greenhouse trial (visual injury 0-100%); conditions: 7.5 g ai/ha
Procedure: as §1, §2, §3
Compound 2 was combined with florasulam and applied to winter wheat (TRZAW) and the phytotoxicity of the herbicidal composition was measured. In addition, the efficacy of the herbicidal composition on poinsettia (Euphorbia heterophylla, EPHHL) and […] (Cyperus esculentus, CYPES) was evaluated.
Weighed amounts of technical or formulated material (emulsifiable concentrate (EC) or soluble concentrate (SL)) were dissolved in a volume of 97:3 volume per volume (v/v) acetone/dimethyl sulfoxide (DMSO) to stock solutions. […] The concentrated stock solutions were diluted with an aqueous mixture of 1.5% v/v of Agri-dex crop oil concentrate to provide the appropriate application rates. Compound requirements are based upon a 12 milliliter (mL) application volume at a rate of 187 liters per hectare (L/ha). Spray solutions of the experimental compound mixtures were prepared by adding the stock solutions to the appropriate amount of dilution solution to form a 12 mL spray solution in two-way combinations. […]

| SMILES | pest or weed control at 5 g/ha ([1]; 5 g ae/ha) | pest or weed control at 10 g/ha ([1]; 10 g ae/ha) | pest or weed control at 5 g/ha ([1]; AMARE, Compound 1 5 g ae/ha) | pest or weed control at 10 g/ha ([1]; AMARE, Compound 1 10 g ae/ha) | % visual injury Obs [2] | % visual injury Obs ([3]; 5 g ae/ha) | % visual injury Obs ([3]; 10 g ae/ha) | % visual injury Obs ([3]; SETFA, Compound 1 5 g ae/ha) | % visual injury Obs ([3]; SETFA, Compound 1 10 g ae/ha) | % visual injury Obs [4] | % visual injury Obs ([5]; 5 g ae/ha) | % visual injury Obs ([5]; BRSNN, Compound 1 5 g ae/ha) | % visual injury Obs ([6]; Compound 1 5 g ae/ha) | % visual injury Obs ([6]; Compound 1 10 g ae/ha) | pest or weed control at 5 g/ha ([6]; Euphorbia heterophylla, post-emergence, 5 g ae/ha, read-out: % visual injury Obs) | pest or weed control at 10 g/ha ([6]; Euphorbia heterophylla, post-emergence, 10 g ae/ha, read-out: % visual injury Obs) | % visual injury Obs [7] |
| --- | --- | --- | --- | --- | --- | --- | --- | --- | --- | --- | --- | --- | --- | --- | --- | --- | --- |
| Nc1c(F)c(-c2ccc3cc[nH]c3c2F)nc(C(=O)O)c1Cl [Compound 1] | 95% | 97% | 75% | 97% | 65% | 10% | 50% | 10% | 50% | 60% | 50% | 70% | 97% | 97% | 97% | 97% | – |
| CCCOc1nn(C(=O)NS(=O)(=O)c2ccccc2C(=O)OC)c(=O)n1C [Propoxycarbazone, propoxycarbazone] | – | – | – | – | – | – | – | – | – | – | – | – | – | – | – | – | 10% |
